Laboratory results as given in patent publication US8404738B2 (Hoffmann-La Roche Inc., priority 2011, dated 2013).
Like-named read-outs stand apart in the source and are kept apart here.

Assays:
HDAC6 = biological target: T1, HDAC6 (Homo sapiens, UniProt Q9UBN7); experiment: Tubulin acetylation cytoblot assay (A549 cells); format: cell-based; settings: 17-18 h incubation, tubulin acetylation as marker of HDAC6 inhibition, read-out: Tub-Ac EC50
T1 construct: endogenous in cells; host or cells: A549 cells
T1 sequence (Q9UBN7 1-1215): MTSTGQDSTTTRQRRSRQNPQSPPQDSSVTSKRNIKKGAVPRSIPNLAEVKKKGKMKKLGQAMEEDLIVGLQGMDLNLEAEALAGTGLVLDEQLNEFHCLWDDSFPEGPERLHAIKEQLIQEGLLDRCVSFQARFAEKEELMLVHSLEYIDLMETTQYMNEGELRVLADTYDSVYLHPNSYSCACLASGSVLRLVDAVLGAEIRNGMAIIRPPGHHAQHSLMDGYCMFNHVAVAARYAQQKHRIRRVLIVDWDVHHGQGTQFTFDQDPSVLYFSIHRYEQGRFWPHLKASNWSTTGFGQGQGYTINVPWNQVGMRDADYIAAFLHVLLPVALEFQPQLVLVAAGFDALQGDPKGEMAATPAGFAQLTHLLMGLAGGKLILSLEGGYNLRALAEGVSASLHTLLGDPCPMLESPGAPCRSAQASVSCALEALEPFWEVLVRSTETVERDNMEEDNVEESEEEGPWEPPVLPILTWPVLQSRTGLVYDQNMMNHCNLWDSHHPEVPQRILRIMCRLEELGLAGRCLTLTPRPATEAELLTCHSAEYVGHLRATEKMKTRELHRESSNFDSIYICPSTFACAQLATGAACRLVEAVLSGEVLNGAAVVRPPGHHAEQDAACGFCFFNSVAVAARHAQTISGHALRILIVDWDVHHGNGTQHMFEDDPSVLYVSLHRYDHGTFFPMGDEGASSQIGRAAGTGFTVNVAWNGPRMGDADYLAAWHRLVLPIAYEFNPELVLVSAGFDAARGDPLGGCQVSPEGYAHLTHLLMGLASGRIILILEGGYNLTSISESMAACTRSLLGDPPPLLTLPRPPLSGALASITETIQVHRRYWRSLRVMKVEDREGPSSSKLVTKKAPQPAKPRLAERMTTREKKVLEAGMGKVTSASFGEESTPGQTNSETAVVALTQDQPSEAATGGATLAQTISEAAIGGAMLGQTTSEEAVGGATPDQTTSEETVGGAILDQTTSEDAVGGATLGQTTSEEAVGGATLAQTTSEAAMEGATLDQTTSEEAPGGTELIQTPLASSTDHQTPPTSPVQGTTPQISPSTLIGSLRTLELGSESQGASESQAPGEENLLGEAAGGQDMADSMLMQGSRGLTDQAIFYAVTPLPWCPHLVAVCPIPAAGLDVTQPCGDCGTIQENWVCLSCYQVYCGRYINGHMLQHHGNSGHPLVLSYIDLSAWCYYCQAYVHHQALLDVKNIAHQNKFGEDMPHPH
Protocol: Tubulin Acetylation Induction by Novel Compounds: Tubulin Acetylation Cytoblot Assay.
Tubulin acetylation is a PD marker for HDAC6 inhibition. The extent of tubulin acetylation represents the inhibitory effect on HDAC6.
Novel compounds were tested for their ability to inhibit HDAC6 using a cell-based deacetylation assay. Tubulin acetylation was detected by the anti-acetylated tubulin antibody (Sigma) and horse radish peroxidase (HRP) conjugated secondary antibody (KangChen Bio. Tech.). […] 20 μl of diluted compound solution was transferred to the cell culture plate and incubated for 17-18 h. After medium removal and fixation by formaldehyde (3.7% paraformaldehyde in TBS), the cells in the plates were treated with 180 μl of −20° C. MeOH and incubated for 5 min at rt. The cell lysis was incubated with 75 μl of primary anti-acetylated tubulin antibody and secondary HRP conjugated antibody solution (1:750 anti-acetylated tubulin, 1:750 HRP conjugated anti-mouse IgG in antibody dilution buffer not containing sodium azide) for 4 h at 4° C. By adding the HRP substrate, enhanced chemiluminescence (ECL) reagent (GE Healthcare) generated luminescence corresponding to the level of tubulin acetylation. So that 75 μl of ECL was added into the wells and the luminescence from each well was immediately quantified by the plate reader. Based on the luminescence reading, the Tub-Ac EC50s against HDAC6 of the tested compounds were calculated by plotting the curve with XLfit4.0 software. Inhibition %=[signal(sample)−Mean(bottom)]×100/[Mean(top)−Mean(bottom)]

recombinant human HDAC8 = biological target: T2, recombinant human HDAC8 (Homo sapiens, UniProt Q9BY41); experiment: HDAC8 inhibition: recombinant HDAC8 fluorometric assay; format: biochemical
T2 construct: made in house; host or cells: insect cells
T2 sequence (Q9BY41 1-377): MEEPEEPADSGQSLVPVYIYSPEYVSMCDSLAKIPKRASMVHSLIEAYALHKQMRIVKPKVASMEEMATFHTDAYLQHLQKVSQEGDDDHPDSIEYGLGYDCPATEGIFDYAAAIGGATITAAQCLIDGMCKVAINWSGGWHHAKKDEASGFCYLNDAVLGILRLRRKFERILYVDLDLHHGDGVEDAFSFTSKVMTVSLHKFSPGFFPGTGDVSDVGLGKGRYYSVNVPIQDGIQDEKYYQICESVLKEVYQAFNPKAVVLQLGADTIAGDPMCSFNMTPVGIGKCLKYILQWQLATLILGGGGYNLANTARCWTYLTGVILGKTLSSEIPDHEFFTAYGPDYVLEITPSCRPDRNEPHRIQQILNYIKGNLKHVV
Protocol: HDAC8 Inhibition by Novel Compounds: Recombinant HDAC8 Fluorometric Assay.
A competitive inhibitory assay of HDAC8 was carried out by using recombinant HDAC8 and a commercial substrate Ac-Arg-His-Lys-Lys(ε-acetyl)-AMC.
Compounds were tested for their ability to inhibit histone deacetylase 8 using an in vitro deacetylation assay. The enzyme source for this assay was recombinant human HDAC8 protein expressed and purified from insect cells. […] The substrate consisted of a commercial product Ac-Arg-His-Lys-Lys(ε-acetyl)-AMC (substrate is available from Cayman Chemical). […] 1 μl of half-log diluted compounds were added into wells and incubated for 15 min at rt. After that, 8 μl of substrate solution was transferred to the wells and incubated for 30 min at rt. After deacetylation of the substrate by incubation with HDAC8 enzyme, subsequent exposure to a developing reagent produced a fluorophore that was directly proportional to the level of deacetylation. […] The fluorescence signal was measured by a FlexStation3 plate reader (excitation wave length 340-360 nm; emission wave length 440-465 nm). The HDAC8 IC50 was calculated after normalization and curve fitting using XLfit4.0 software. Inhibition %=[Mean(top)−signal(sample)]×100/[Mean(top)−Mean(bottom)].

[1] = test system: p21 promoter-luciferase construct; experiment: p21 reporter gene induction (HeLa cells, p21 promoter-luciferase construct); settings: for p21 RP3: relative gene level of p21 compared to MS275 at 3 μM; for p21 RP10: relative level of p21 compared to MS275 at 10 μM; for p21 RP30: relative level of p21 compared to MS275 at 30 μM;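 as to all read-outs here: transfected HeLa cells exposed to compound for 15 h, luciferase luminescence read from lysates, p21 promoter lacks p53 site, proxy for cellular HDAC1/2/3 inhibition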
[2] = recombinant human HDAC8, substrate Ac-Arg-His-Lys-Lys(ε-acetyl)-AMC, read-out: HDAC8 IC50

SMILES | EC50 (HDAC6) [nM] | IC50 (recombinant human HDAC8; [2]) [nM] | p21 RP3 [1] | p21 RP10 [1] | p21 RP30 [1] | IC50 (recombinant human HDAC8; HDAC8 IC50, recombinant human HDAC8, substrate Ac-Arg-His-Lys-Lys(ε-acetyl)-AMC) [nM]
C[C@H]1[C@H](Nc2ccc(C(=O)NO)cc2)CC(=O)N1c1ccc(Cl)cc1 (racemic) [Example 77, Trans-4-[1-(4-Chloro-phenyl)-2-methyl-5-oxo-pyrrolidin-3-ylamino]-N-hydroxy-benzamide] | 1250 | 850 | 0.00 | 0.07 | 0.07 | –
O=C(NO)c1ccc(NC2CCN(c3ccccc3)C2=O)cc1 (stereo not shown) [Example 1] | 5860 | – | 0.08 | 0.08 | 0.15 | 810
O=C(NO)c1ccc(NC2CCN(c3ccc(C(F)(F)F)cc3)C2=O)cc1 (stereo not shown) [Example 12, N-Hydroxy-4-[2-oxo-1-(4-trifluoromethyl-phenyl)-pyrrolidin-3-ylamino]-benzamide] | – | 990 | 0.01 | 0.10 | 0.14 | –
CCCCc1ccc(N2CCC(Nc3ccc(C(=O)NO)cc3)C2=O)cc1 (stereo not shown) [Example 15, 4-[1-(4-Butyl-phenyl)-2-oxo-pyrrolidin-3-ylamino]-N-hydroxy-benzamide] | 4900 | – | 0.09 | 0.06 | 0.04 | –
O=C(NO)c1ccc(NC2CCN(c3ccc(Cl)cc3Cl)C2=O)cc1 (stereo not shown) [Example 23, 4-[1-(2,4-Dichloro-phenyl)-2-oxo-pyrrolidin-3-ylamino]-N-hydroxy-benzamide] | – | 1410 | 0.10 | 0.04 | 0.03 | –
O=C(NO)c1ccc(NC2CCN(CCc3ccccc3)C2=O)cc1 (stereo not shown) [Example 43, N-Hydroxy-4-(2-oxo-1-phenethyl-pyrrolidin-3-ylamino)-benzamide] | – | 390 | −0.02 | 0.22 | 0.62 | –
COc1ccc(CN2CCC(Nc3ccc(C(=O)NO)cc3)C2=O)cc1 (stereo not shown) [Example 46, N-Hydroxy-4-[1-(4-methoxy-benzyl)-2-oxo-pyrrolidin-3-ylamino]-benzamide] | – | 390 | 0.07 | 0.26 | 0.70 | –
O=C(NO)c1ccc(NC2CCN(C3(c4ccccc4)CCC3)C2=O)cc1 (stereo not shown) [Example 54, N-Hydroxy-4-[2-oxo-1-(1-phenyl-cyclobutyl)-pyrrolidin-3-ylamino]-benzamide] | – | 310 | 0.28 | 0.46 | 0.79 | –
CCC1(Nc2ccc(C(=O)NO)cc2)CCN(C(C)(C)c2ccccc2)C1=O (stereo not shown) [Example 65, 4-[3-Ethyl-1-(1-methyl-1-phenyl-ethyl)-2-oxo-pyrrolidin-3-ylamino]-N-hydroxy-benzamide] | – | 560 | 0.00 | 0.00 | 0.00 | –
O=C(NO)c1ccc(NC2CCN(c3ccc(Cl)c(Cl)c3)C2=O)cc1F (stereo not shown) [Example 68, 4-[1-(3,4-Dichloro-phenyl)-2-oxo-pyrrolidin-3-ylamino]-2-fluoro-N-hydroxy-benzamide] | 6670 | – | −0.05 | 0.02 | 0.01 | –
CC(C)(c1ccccc1)N1CC(Nc2ccc(C(=O)NO)cc2)CC1=O (stereo not shown) [Example 76, N-Hydroxy-4-[1-(1-methyl-1-phenyl-ethyl)-5-oxo-pyrrolidin-3-ylamino]-benzamide] | 3020 | 1880 | – | – | – | –
O=C(NO)c1ccc(NC2CCN(S(=O)(=O)c3ccccc3)C2)cc1 (stereo not shown) [Example 84, 4-(1-Benzenesulfonyl-pyrrolidin-3-ylamino)-N-hydroxy-benzamide] | – | 2770 | 0.13 | 0.02 | 0.01 | –
O=C(NO)c1ccc(NC2CCN(S(=O)(=O)c3ccc(Cl)cc3)C2)cc1 (stereo not shown) [Example 86, 4-[1-(4-Chloro-benzenesulfonyl)-pyrrolidin-3-ylamino]-N-hydroxy-benzamide] | – | 1540 | 0.04 | 0.01 | 0.01 | –
O=C(NO)c1ccc(NC2CCN(S(=O)(=O)c3ccc(-c4ccccc4)cc3)C2)cc1 (stereo not shown) [Example 87, 4-[1-(Biphenyl-4-sulfonyl)-pyrrolidin-3-ylamino]-N-hydroxy-benzamide] | – | 2010 | 0.20 | 0.00 | −0.03 | –
O=C(NO)c1ccc(NC2CCN(C(=O)c3ccccc3)C2)cc1 (stereo not shown) [Example 88, 4-(1-Benzoyl-pyrrolidin-3-ylamino)-N-hydroxy-benzamide] | – | 1350 | 0.35 | 0.06 | 0.03 | –
O=C(NO)c1ccc(NC2CCN(C(=O)c3ccc(F)cc3)C2)cc1 (stereo not shown) [Example 89, 4-[1-(4-Fluoro-benzoyl)-pyrrolidin-3-ylamino]-N-hydroxy-benzamide] | – | 900 | 0.38 | 0.10 | 0.06 | –
COc1ccc(C(=O)N2CCC(Nc3ccc(C(=O)NO)cc3)C2)cc1 (stereo not shown) [Example 90, N-Hydroxy-4-[1-(4-methoxy-benzoyl)-pyrrolidin-3-ylamino]-benzamide] | – | 920 | 0.38 | 0.09 | 0.05 | –
CC1(Nc2ccc(C(=O)NO)cc2)C(=O)N(CCc2ccccc2)c2ccccc21 (stereo not shown) [Example 94, N-hydroxy-4-(3-methyl-2-oxo-1-phenethyl-2,3-dihydro-1H-indol-3-ylamino)-benzamide] | 150 | 980 | – | – | – | –
